According to patent US20250034216A1, “STEREOSELECTIVE COVALENT LIGANDS FOR ONCOGENIC AND IMMUNOLOGICAL PROTEINS” (The Scripps Research Institute, priority 2021, published 2025):

Columns and labels:
Assay in all cases: IA-DTB cysteine engagement
Assay type in all cases: binding
Conditions in all cases: 22Rv1 cells, 20 μM probe, 1 h, relative to DMSO
MRPS30_C204 = target: T1, MRPS30_C204 (Homo sapiens, UniProt Q9NP92)
T1 construct: endogenous in cells; host or cells: 22Rv1
Procedure, shortened: (§1)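 Probe-exposed cells were lysed, IA-DTB-labeled, trypsinized and streptavidin-enriched. Multiplexed TMT quantitation gave engagement ratios versus DMSO, with non-tryptic peptides excluded and intensities normalized to median summed signal.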

OCIAD1_C98 = target: T2, OCIAD1_C98 (Homo sapiens, UniProt Q9NX40)
T2 construct: endogenous in cells; host or cells: 22Rv1
T2 sequence (Q9NX40 1-245): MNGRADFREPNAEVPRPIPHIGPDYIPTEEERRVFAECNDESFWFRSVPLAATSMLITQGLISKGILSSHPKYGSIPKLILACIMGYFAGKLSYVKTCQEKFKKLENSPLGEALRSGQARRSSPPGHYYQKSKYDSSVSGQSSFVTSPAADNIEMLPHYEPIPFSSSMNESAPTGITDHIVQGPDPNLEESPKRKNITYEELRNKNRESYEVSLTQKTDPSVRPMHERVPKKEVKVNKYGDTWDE
Procedure, shortened: as §1

MAGI1_C526 = target: T3, MAGI1_C526 (Homo sapiens, UniProt Q96QZ7)
T3 construct: endogenous in cells; host or cells: 22Rv1
T3 sequence (Q96QZ7 whole entry): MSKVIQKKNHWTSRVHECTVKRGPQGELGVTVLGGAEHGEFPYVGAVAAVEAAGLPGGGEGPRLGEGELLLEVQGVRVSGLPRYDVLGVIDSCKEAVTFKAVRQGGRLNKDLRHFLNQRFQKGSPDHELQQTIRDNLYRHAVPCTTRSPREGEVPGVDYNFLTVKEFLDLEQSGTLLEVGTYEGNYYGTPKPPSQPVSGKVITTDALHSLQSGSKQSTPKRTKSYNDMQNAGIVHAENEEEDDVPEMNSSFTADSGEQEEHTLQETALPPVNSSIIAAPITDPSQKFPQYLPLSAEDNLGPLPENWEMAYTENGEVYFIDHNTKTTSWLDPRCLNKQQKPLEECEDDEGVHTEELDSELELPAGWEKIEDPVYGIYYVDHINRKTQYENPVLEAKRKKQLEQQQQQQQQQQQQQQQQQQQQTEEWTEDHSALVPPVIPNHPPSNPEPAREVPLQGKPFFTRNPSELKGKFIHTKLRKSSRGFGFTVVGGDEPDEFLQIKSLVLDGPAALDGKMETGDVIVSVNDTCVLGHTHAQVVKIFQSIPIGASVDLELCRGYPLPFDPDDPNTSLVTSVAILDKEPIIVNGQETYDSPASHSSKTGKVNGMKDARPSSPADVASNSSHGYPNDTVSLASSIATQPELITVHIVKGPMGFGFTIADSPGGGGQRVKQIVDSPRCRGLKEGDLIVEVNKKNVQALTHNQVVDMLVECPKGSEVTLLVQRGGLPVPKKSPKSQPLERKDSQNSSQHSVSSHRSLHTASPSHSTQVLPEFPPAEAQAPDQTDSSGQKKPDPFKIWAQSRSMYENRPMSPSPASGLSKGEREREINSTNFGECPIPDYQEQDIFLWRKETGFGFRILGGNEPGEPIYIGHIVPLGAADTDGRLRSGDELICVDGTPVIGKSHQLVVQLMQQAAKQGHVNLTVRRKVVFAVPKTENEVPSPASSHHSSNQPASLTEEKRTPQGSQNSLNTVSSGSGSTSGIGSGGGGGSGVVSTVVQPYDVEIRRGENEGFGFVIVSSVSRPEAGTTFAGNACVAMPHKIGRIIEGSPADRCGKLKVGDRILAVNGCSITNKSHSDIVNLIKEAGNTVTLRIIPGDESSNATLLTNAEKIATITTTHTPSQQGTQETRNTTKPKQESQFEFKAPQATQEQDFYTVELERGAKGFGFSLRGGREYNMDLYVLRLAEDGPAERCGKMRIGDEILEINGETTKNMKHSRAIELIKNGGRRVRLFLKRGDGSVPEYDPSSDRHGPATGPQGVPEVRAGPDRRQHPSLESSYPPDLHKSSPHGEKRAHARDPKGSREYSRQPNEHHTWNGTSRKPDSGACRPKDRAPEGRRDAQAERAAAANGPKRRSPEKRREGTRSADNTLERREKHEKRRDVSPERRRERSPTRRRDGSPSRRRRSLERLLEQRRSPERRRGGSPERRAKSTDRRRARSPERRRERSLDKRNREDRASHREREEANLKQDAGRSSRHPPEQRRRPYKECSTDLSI
Procedure, shortened: as §1

MTMR12_C152 = target: T4, MTMR12_C152 (Homo sapiens, UniProt Q9C0I1)
T4 construct: endogenous in cells; host or cells: 22Rv1
T4 sequence (Q9C0I1 1-747): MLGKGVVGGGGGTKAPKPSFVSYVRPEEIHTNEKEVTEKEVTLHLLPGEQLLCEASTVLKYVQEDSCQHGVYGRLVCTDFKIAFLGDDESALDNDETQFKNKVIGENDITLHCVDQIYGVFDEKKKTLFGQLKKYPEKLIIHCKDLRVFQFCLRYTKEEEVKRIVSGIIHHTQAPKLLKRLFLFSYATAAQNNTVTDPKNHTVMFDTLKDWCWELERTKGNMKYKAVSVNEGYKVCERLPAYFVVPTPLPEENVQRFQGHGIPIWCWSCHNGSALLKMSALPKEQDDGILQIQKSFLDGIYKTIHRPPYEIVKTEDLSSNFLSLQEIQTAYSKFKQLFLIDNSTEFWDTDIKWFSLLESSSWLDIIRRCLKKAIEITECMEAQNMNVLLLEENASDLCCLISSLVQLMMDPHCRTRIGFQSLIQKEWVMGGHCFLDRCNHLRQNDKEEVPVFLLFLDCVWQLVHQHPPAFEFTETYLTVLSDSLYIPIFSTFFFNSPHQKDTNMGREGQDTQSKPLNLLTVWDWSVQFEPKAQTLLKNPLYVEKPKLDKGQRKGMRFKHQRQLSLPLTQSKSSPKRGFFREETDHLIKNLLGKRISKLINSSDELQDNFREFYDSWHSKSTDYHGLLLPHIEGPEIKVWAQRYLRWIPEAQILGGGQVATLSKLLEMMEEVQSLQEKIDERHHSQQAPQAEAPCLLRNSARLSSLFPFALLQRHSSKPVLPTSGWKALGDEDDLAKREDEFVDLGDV
Procedure, shortened: as §1

COX6B1_C54 = target: T5, COX6B1_C54 (Homo sapiens, UniProt P14854)
T5 construct: endogenous in cells; host or cells: 22Rv1
T5 sequence (P14854 whole entry): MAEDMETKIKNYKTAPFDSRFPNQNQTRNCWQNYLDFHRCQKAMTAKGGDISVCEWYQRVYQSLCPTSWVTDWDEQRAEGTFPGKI
Procedure, shortened: as §1

| SMILES | % engagement MRPS30_C204 (MRPS30_C204) [%] | % engagement OCIAD1_C98 (OCIAD1_C98) [%] | % engagement MAGI1_C526 (MAGI1_C526) [%] | % engagement MTMR12_C152 (MTMR12_C152) [%] | % engagement COX6B1_C54 (COX6B1_C54) [%] |
| --- | --- | --- | --- | --- | --- |
| C=CC(=O)N1C[C@H](c2ccc(Br)cc2)[C@H]1C(=O)Nc1cccc2cccnc12 [MY-3A, (2S,3S)-1-acryloyl-3-(4-bromophenyl)-N-(quinolin-8-yl)azetidine-2-carboxamide] | 1 | 12.5 | 2.5 | 12 | 33.5 |
| C=CC(=O)N1C[C@H](c2ccc(Br)cc2)[C@@H]1C(=O)Nc1cccc2cccnc12 [MY-1B, (2R,3S)-1-acryloyl-3-(4-bromophenyl)-N-(quinolin-8-yl)azetidine-2-carboxamide] | −37 | 19 | 32 | 31 | 56 |
| C=CC(=O)N1C[C@H](c2ccc(Br)cc2)[C@H]1C(=O)Nc1cccc2cccnc12 [MY-3B, (2S,3S)-1-acryloyl-3-(4-bromophenyl)-N-(quinolin-8-yl)azetidine-2-carboxamide] | −41.5 | 72.5 | 100 | 91.5 | 36.5 |
| C=CC(=O)N1C[C@@H](c2ccc(Br)cc2)[C@H]1C(=O)Nc1cccc2cccnc12 [MY-1A, (2S,3R)-1-acryloyl-3-(4-bromophenyl)-N-(quinolin-8-yl)azetidine-2-carboxamide] | 74.5 | 26 | 65 | 40.5 | 66.5 |
